Calls of active or inactive are those of the source.
Assays:
[1] = target: T1, Heat shock factor protein 1 (Mus musculus, UniProt P38532); test: inhibition of MG132-induced HSE-luciferase signal, confirmation, cell-based, NIH3T3, luminescence, dose retest (AID 2382); assay type: functional;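 further: NIH3T3 fibroblasts with HSF1-driven luciferase reporter stressed by proteasome inhibitor MG132; luminescence from HSF1-driven luciferase expression after 8 hours of MG132 stress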
T1 sequence (P38532 whole entry): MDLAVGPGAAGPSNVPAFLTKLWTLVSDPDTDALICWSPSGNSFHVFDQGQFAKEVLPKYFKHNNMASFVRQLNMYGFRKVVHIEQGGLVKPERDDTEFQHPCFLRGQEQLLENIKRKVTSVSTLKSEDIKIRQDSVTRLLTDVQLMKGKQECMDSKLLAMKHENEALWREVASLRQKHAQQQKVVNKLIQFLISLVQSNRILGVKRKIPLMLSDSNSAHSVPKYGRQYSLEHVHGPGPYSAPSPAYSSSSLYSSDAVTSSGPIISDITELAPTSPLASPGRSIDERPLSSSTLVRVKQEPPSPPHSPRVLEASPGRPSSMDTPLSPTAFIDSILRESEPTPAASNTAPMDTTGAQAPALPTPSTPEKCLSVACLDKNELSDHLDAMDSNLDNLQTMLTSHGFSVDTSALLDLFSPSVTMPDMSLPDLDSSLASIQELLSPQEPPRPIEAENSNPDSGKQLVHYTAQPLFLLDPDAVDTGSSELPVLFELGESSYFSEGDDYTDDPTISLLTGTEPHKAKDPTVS

[2] = inhibitors of SNCA 5'UTR-driven reporter translation, confirmation, H4 neuroglioma cells, luminescence (AID 1988); assay type: functional, cell-based
[3] = Luminescence Cell-Based Dose Response HTS to Identify Inhibitors of 5'UTR Stem-Loop Driven Prion Protein mRNA Translation in H4 Neuroglioblastoma Cells. [Related pubchem assays: 1827 (Project Summary), 1813 (Primary HTS)]; assay type: functional
[4] = inhibitors of firefly luciferase expression or activity, dose response, H4 neuroglioma cells, luminescence (AID 1990); assay type: functional, cell-based
[5] = target: T2, Replicative DNA helicase DnaB (Mycobacterium tuberculosis, UniProt P9WMR3); test: DnaB intein splicing inhibitors, dose response, biochemical, cell-free fluorescence (AID 449749); assay type: functional
T2 sequence (P9WMR3 whole entry): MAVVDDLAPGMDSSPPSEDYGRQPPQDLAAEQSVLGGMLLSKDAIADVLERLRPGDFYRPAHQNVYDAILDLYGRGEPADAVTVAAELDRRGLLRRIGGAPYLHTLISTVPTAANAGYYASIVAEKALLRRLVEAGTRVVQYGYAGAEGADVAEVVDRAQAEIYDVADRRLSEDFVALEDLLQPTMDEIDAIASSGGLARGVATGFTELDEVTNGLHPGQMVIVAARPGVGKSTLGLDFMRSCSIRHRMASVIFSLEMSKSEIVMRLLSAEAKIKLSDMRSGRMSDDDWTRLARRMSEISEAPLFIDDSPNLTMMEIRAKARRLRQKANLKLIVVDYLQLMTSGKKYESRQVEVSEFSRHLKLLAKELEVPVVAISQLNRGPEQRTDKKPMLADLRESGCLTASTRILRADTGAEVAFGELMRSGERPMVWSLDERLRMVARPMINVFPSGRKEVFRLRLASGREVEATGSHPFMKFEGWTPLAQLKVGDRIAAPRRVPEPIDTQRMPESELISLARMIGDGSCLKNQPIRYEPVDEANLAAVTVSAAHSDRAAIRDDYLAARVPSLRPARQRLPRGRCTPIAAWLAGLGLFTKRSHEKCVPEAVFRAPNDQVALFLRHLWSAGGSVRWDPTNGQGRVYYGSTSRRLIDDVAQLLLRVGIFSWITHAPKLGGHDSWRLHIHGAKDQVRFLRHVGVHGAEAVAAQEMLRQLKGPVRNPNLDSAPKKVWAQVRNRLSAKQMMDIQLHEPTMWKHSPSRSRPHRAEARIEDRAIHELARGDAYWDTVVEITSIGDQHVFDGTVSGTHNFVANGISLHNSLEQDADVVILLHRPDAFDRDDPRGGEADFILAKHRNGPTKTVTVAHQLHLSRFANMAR

Protein RecA = target: T3, Protein RecA (Mycobacterium tuberculosis, UniProt P9WHJ3); test: Fluorescence Cell-Free Homogeneous Dose Retest to Identify Inhibitors of RecA-Intein Splicing Activity. [Related pubchem assays (depositor defined):AID2097, AID2223, AID489010, AID492950]; assay type: functional
T3 sequence (P9WHJ3 whole entry): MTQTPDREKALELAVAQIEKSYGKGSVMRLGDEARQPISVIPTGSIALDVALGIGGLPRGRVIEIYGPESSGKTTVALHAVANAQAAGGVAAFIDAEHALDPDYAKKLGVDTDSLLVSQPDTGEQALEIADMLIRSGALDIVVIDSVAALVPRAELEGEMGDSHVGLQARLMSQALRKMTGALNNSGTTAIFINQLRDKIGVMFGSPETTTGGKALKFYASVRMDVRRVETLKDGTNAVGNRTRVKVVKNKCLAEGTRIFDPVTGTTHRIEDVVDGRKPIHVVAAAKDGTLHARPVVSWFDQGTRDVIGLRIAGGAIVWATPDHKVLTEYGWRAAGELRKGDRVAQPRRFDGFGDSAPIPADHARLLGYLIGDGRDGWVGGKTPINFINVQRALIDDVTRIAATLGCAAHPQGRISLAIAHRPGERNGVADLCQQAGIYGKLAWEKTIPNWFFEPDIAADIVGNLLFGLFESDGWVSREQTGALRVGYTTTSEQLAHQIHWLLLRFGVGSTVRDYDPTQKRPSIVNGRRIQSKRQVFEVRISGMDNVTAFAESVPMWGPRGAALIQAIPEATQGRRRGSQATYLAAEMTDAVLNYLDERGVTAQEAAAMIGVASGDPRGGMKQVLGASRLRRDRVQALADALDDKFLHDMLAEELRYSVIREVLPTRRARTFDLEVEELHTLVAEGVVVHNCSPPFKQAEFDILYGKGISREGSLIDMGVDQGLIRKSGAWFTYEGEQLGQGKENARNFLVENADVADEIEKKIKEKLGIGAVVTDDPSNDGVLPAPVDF

[6] = growth suppression of beta-catenin-knockout colon cells, dose response, cell-based, HCT116, human colon tumor (AID 1045); assay type: functional;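 further: HCT116 colon tumor cells with beta catenin knocked out; cells exposed to compound for 60 hours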
[7] = growth suppression of PTEN-null colon cells, dose response, cell-based, HCT116 PTEN knockout (AID 1047); assay type: functional;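 further: HCT116 colon tumor cells with PTEN knocked out; cells exposed to compound for 60 hours before readout; potency for loss of cell viability measured by luminescence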
Cytochrome P450 2D6 = Cytochrome P450 2D6 (Homo sapiens, UniProt P10635);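 further: CYP2D6 member of a cytochrome P450 panel assay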
Chain of Cytochrome P450 2D6 (P10635 whole entry): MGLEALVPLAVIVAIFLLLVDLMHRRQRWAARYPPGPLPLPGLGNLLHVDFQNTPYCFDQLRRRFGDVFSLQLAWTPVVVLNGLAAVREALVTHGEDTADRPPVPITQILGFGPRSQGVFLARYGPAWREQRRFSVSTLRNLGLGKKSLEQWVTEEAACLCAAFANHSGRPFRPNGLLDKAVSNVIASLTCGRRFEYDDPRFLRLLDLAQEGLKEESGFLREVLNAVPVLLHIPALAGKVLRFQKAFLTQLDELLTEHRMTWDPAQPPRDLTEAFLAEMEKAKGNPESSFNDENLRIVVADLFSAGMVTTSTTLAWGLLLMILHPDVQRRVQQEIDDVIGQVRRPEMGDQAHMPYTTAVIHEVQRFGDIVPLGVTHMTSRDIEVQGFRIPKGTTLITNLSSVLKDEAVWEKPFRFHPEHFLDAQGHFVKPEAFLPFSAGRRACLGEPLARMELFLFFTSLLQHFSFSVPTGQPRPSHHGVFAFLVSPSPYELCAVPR

[8] = Luminescence Cell-Based Dose Retest to Confirm Inhibitors of Cancer Stem Cells. [Related pubchem assays (depositor defined):AID2717, AID2721]; assay type: functional; conditions: Homo sapiens
Paired box protein Pax-8 = Paired box protein Pax-8 (Homo sapiens, UniProt Q06710); test: inhibitors of PAX8-driven TPO luciferase reporter, dose response, RMG-I cells, cherry-pick (AID 687027); assay type: functional, cell-based;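 further: luciferase reporter driven by Pax8 target thyroperoxidase promoter measured by SteadyGlo luminescence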
Chain of Paired box protein Pax-8 (Q06710 whole entry): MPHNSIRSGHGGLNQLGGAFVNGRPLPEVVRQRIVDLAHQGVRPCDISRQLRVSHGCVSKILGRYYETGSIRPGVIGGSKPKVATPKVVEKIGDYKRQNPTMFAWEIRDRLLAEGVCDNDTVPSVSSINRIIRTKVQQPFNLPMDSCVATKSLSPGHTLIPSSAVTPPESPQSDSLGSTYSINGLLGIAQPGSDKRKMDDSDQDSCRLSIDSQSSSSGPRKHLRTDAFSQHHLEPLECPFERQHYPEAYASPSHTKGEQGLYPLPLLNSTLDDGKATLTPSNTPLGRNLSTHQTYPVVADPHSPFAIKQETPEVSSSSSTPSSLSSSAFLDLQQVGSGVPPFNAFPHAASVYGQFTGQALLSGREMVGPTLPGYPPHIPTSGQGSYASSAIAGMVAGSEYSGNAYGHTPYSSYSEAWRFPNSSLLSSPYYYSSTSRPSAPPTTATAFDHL

[9] = cytotoxicity toward NIH3T3 fibroblasts, dose response, counter-screen, cell-based, ATP luminescence, mouse fibroblasts (AID 2010); assay type: functional;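 further: cells exposed to compound for about 90 hours before reading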
[10] = inhibitors of intracellular T. cruzi replication, confirmation, NIH3T3 host cells, beta-gal luminescence (AID 2044); assay type: functional, cell-based;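 further: intracellular parasites grown in NIH/3T3 mouse fibroblasts as host cells; luminescent beta-galactosidase reporter signal from transgenic T. cruzi replicating inside host cells; inhibitors lower the luminescence signal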
[11] = HEp-2 cell cytotoxicity, dose response, cytotoxicity control for RSV inhibitor project, HTS (AID 2410); assay type: functional; conditions: human respiratory syncytial virus
Cytochrome P450 2C9 = Cytochrome P450 2C9 (Homo sapiens, UniProt P11712)
Chain of Cytochrome P450 2C9 (P11712 whole entry): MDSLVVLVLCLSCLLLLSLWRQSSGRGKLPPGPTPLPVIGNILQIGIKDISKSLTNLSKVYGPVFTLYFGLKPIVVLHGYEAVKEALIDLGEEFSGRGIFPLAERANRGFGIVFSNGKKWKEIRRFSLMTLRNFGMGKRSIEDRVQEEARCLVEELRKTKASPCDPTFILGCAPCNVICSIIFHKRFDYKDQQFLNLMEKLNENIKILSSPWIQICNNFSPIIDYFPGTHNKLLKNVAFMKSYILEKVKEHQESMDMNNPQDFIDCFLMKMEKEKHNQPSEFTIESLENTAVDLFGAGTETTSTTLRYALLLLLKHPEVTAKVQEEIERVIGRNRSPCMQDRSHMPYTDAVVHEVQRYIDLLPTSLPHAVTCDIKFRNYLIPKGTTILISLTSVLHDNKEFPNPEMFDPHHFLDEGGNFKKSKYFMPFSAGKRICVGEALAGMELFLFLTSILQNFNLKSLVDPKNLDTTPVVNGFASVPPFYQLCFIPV

With Nn1c(SCc2ccccc2)nnc1-c1ccco1 the EC50 [1] was > 195 µM (not active).
For CCc1ccc(C(=O)NC(CCSC)C(=O)OC)cc1 (stereo unspecified), the EC50 [1] was > 195 µM (not active).
With Cc1cc(-n2c(SCC(=O)NCc3cccs3)nc3nnc(C)c-3c2N)ccc1Cl the EC50 [2] was 15.3 µM (active), the EC50 [3] was > 120 µM (not active) and the EC50 [4] was 14.4 µM (active).
With CCN1C(=O)/C(=C/Nc2ccccc2)OC1=S the EC50 [1] was > 195 µM (not active).
In the case of CCOc1ccccc1CNC(=O)CCn1ccc2cc(S(=O)(=O)N3CCCCC3)ccc21, the EC50 [1] is reported as > 195 µM (not active).
With COCCCn1c(-c2ccco2)nc2ccccc2c1=O the EC50 [1] was > 195 µM (not active).
For CCOc1ccccc1OCCOCCOc1c(Cl)cccc1Cl, the EC50 [1] was > 195 µM (not active).
For COCc1n[nH]c2c1C(c1ccc(OC)c(OC)c1)C(C#N)=C(N)O2 (stereo unspecified), the AC50 [5] was 9.47 µM (active) and the EC50 (Protein RecA) was 6.25 µM (active).
With COc1ccc(-c2cc(C(F)(F)F)nc(N3CCN(C)CC3)n2)cc1OC the EC50 [6] was 30.2 µM (active), the EC50 [7] was 29.2 µM (active) and the AC50 (Cytochrome P450 2D6) was 28.2 µM (inconclusive).
In the case of NS(=O)(=O)c1ccc(NN=C2C(=O)NC(=S)NC2=O)cc1, the AC50 [5] is reported as 51.7 µM (active) and the EC50 (Protein RecA) is reported as 15.5 µM (active).
In the case of CC(=O)Nc1ccc(NC(=O)CSc2ncc(C(=O)Nc3ccccc3)c(=O)n2C)cc1, the AC50 [5] is reported as 0.131 µM (active), the EC50 (Protein RecA) is reported as 0.043 µM (active) and the AC50 [8] is reported as 5.28 µM (active).
With COc1ccc(C(=O)NC2CCCc3c2cnn3-c2ccccc2F)o1 (stereo unspecified) the EC50 [2] was 22.2 µM (active), the EC50 [3] was 18.9 µM (active) and the EC50 [4] was 41 µM (active).
With O=C(CCc1ccc(S(=O)(=O)NCc2ccccc2)cc1)NCc1ccco1 the AC50 (Paired box protein Pax-8) was 47.9 µM (active).
For CCOc1ccc(CNC(c2ccccc2)c2ccccc2)cc1, the EC50 [1] was > 195 µM (not active).
For O=C1/C(=C/c2ccc(F)cc2)SC(=S)N1CC(=O)N1CCCCC1c1cccnc1 (stereo unspecified), the AC50 [5] was 13.1 µM (active) and the EC50 (Protein RecA) was 30.3 µM (active).
With CC(=O)c1sc(NC(=O)CCS(=O)(=O)c2ccc(Cl)cc2)nc1C the AC50 (Paired box protein Pax-8) was 5.01 µM (active).
In the case of O=C(Nc1ccc2c(c1)OCCO2)c1cccc2nc3ccccc3nc12, the EC50 [6] is reported as 47 µM (active), the EC50 [7] is reported as 93.9 µM (active) and the EC50 [9] is reported as > 60 µM (not active). The EC50 [10] was 2.09 µM (active), the AC50 [8] was 2.59 µM (active) and the AC50 (Cytochrome P450 2D6) was 8.91 µM (inconclusive).
For Cc1nn(Cc2ccccc2)c2c1C(c1ccncc1)C(C#N)=C(N)O2 (stereo unspecified), the AC50 [5] was 11.1 µM (active) and the EC50 (Protein RecA) was 3.43 µM (active).
For CCC(=O)Oc1ccc2c(C)cc(=O)oc2c1C(=O)c1ccccc1, the AC50 (Paired box protein Pax-8) was 42.4 µM (active).
For Cc1ccc(NC(=O)COC(=O)Cn2cnc3ccccc32)cc1S(=O)(=O)N(C)C, the EC50 [1] was > 195 µM (not active).
In the case of Cc1c(C(=O)Nc2ccncc2)sc2nc(-c3ccc(F)cc3)cn12, the EC50 [6] is reported as 29.3 µM (active), the EC50 [7] is reported as 27.9 µM (active) and the CC50 [11] is reported as 5.09 µM (active).
With O=C(Nc1cccc(Cl)c1Cl)c1snnc1-c1ccccc1 the EC50 [1] was > 195 µM (not active) and the AC50 (Cytochrome P450 2C9) was 3.16 µM (inconclusive).
In the case of N#CC1=C(N)Oc2[nH]nc(CSc3ccccc3)c2C12C(=O)Nc1ccccc12 (stereo unspecified), the EC50 [1] is reported as > 195 µM (not active).
For CCOc1ccc(NC(=O)C(c2ccccn2)N(C(=O)CCl)c2ccc(F)cc2)cc1 (stereo unspecified), the AC50 [5] was 7.1 µM (active) and the EC50 (Protein RecA) was 2.67 µM (active).
For CC1(C)CC2CC(C)(CN2C(=O)CCCN2C(=O)c3ccccc3C2=O)C1 (stereo unspecified), the EC50 [1] was > 195 µM (not active).
With O=C(Cn1cnc2c(oc3nc4c(cc32)CCCC4)c1=O)Nc1cccc(Cl)c1 the EC50 [2] was 10.2 µM (active), the EC50 [3] was > 120 µM (not active) and the EC50 [4] was 13 µM (active).
With CCOc1ccc(S(=O)(=O)N2CCCC(C(=O)NCc3cccnc3)C2)cc1C (stereo unspecified) the EC50 [2] was 19.3 µM (active), the EC50 [3] was 65.6 µM (active) and the EC50 [4] was 14.2 µM (active).
In the case of C[C@H]1CN([C@@H](C)CO)C(=O)Cc2cc(NC(=O)Nc3ccc4c(c3)OCO4)ccc2O[C@@H]1CN(C)Cc1ccc(-c2ccccc2)cc1, the AC50 (Paired box protein Pax-8) is reported as 5.45 µM (active).
With COC(=O)[C@H]1[C@@H](O)[C@@]2(O)c3c(OC)cc(OC)cc3O[C@@]2(c2ccc(OC)cc2)[C@@H]1c1ccc(F)cc1 the AC50 (Paired box protein Pax-8) was 0.465 µM (active).
In the case of CCOC(=O)c1ccc(NC(=S)NC(=O)C2CCCC2)cc1, the EC50 [1] is reported as > 195 µM (not active).
With CC(NC(=O)C12CC3CC(CC(C3)C1)C2)C(=O)N/N=C/C1=C(N2CCOCC2)C(=C\c2ccccc2)/CC1 (stereo unspecified) the EC50 [2] was 16.4 µM (active), the EC50 [3] was > 120 µM (not active) and the EC50 [4] was 15.7 µM (active).
With CCN(CC)c1ccc(/C=N/n2c(S)nnc2-c2ccccc2Br)cc1 the EC50 [2] was > 120 µM (not active), the EC50 [3] was > 120 µM (not active) and the EC50 [4] was > 120 µM (not active).
With COc1cc(/C=N/NC(=O)CC2(C)OCCCO2)ccc1OCc1ccccc1 the AC50 [5] was 2.64 µM (active) and the EC50 (Protein RecA) was 0.81 µM (active).
With CCNc1ccc(C(=O)N/N=C/c2c(C)nn(-c3ccccc3)c2N2CCCC2)cc1[N+](=O)[O-] the EC50 [2] was 30.6 µM (active), the EC50 [3] was 12.7 µM (active) and the EC50 [4] was 18.5 µM (active).

Source: ChEMBL document CHEMBL1201862, “PubChem BioAssay data set” (2004)
